Laboratory results as given in patent US20240110202A1, “Advanced Cell-Permeable Peptide Carriers” (MUSC FOUNDATION FOR RESEARCH DEVELOPMENT, priority 2020, published 2024).
“Also recorded” adds a separate entry of the source.

Assays:
CAL 27 cells = test: Quantitative siRNA cell uptake assay; type: cell-based, human; settings: DY547-siCIP2A, 2 hours post-treatment; for siRNA delivery into cells (internalization) compared to 599: 50:1 Peptide:siRNA molar (12.5 N/P) ratio
Protocol: CAL 27 cells, grown to a confluency of 60% on a 24-well plate, were rinsed three times with Opti-MEM I Reduced Serum Media (Opti-MEM; Thermo Fisher Scientific). […] After complexation, the total volume was brought to 600 μL with Opti-MEM, after which the cells were incubated with 500 μL of peptide-siCIP2A complexes for 2 hours at 37° C. with 5% CO2. As an additional control, the cells were also transfected with 50 pmol of DY547-siCIP2A using Lipofectamine® 3000 (Thermo Fisher Scientific), according to the manufacturer's instructions. After treatment, the cells were rinsed three times with PBS, before being trypsinized for 10 minutes at 37° C., followed by centrifugation for 5 minutes at 1,000×g at 4° C. The cells were then washed with ice cold phosphate-buffered saline (PBS) and centrifuged again for 5 minutes at 1,000×g at 4° C. Next, the cells were lysed in 250 μl ice cold 0.1 M NaOH. The cell lysates were centrifuged at 4° C. for 5 minutes at 10,000×g to remove cell debris. Afterwards, 100 μL of each sample was transferred to a black 96-well plate to measure fluorescence at 530/590 nm using a BioTek (Winooski, VT) Synergy HT plate reader. Fluorescence measurements were converted to the amount of internalized siRNAs using a standard curve that was generated per experiment using known concentrations of DY547-siCIP2A ranging from 0-100 fmol/μl. Subsequently, the amount of internalized siRNA was normalized to the amount of protein, which was quantitated using the Pierce BCA Protein Assay Kit (Thermo Fisher Scientific).

[1] = Physicochemical measurements (Zetasizer) of peptide-siCIP2A complexes; settings: complex with siCIP2A at 50:1 Peptide:siRNA molar (12.5 N/P) ratio in water; for Particle Size: mean hydrodynamic size, dynamic light scattering, ± SD; for Particle Size / Zeta Potential: three experiments; for Zeta Potential: mean ± SD
RNase A = test: RNase protection assay; type: biochemical; settings: siCIP2A, 50:1, 1 hour at 37° C.
Protocol: (§1) Afterwards, complexes were either treated or untreated with 0.18 μg of RNase A (Thermo Fisher Scientific) for 1 hour at 37° C., followed by denaturation with 4% SDS. Next, the samples were electrophoresed on a 4% agarose gel and resulting siCIP2A bands were imaged and quantified, as described above.

Serum protection assay = type: in vitro ADME; settings: siCIP2A, 50:1, 50% human serum, 1 hour at 37° C.
Protocol: as §1, with “50% human serum (final concentration; VWR, Radnor, PA)” for “0.18 μg of RNase A (Thermo Fisher Scientific)”

siCIP2A [2] = test: siRNA release assay (heparin competition); settings: 50:1 complexes; for siRNA release compared to 599: 0-10 μg heparin, 30 minutes at RT
Protocol: Afterwards complexes were incubated with either 0, 0.1, 0.5, 1.0, 2.0, 5.0 or 10 μg heparin (Millipore Sigma, St. Louis, MO) for 30 minutes at RT. The samples were then electrophoresed on a 4% agarose gel and resulting siCIP2A bands were imaged and quantified, as described above.

siCIP2A [3] = test: siRNA binding assay (gel-shift); settings: 10:1 Peptide:siRNA molar ratio
Source text: Afterwards, the samples were electrophoresed on a 4% agarose gel and stained with ethidium bromide. Free siCIP2A was used as a normalizing control. An Ultra-Low Range DNA Ladder (Thermo Fisher Scientific, Waltham, MA) was used as a MW marker. Resulting siCIP2A bands were imaged and quantified using a G:Box Chemi XX6 and GeneSys image capture software (Syngene, Frederick, MD), respectively.

CIP2A mRNA [4] = test: CIP2A silencing in cells, real-time PCR; type: cell-based, human; settings: CAL 27 cells, 50:1, 48 hours
Protocol: CAL 27 cells, grown to a confluency of 60% on 24-well plates, were rinsed three times with Opti-MEM. […] Afterwards, the complexes were added to the cells at a siRNA concentration of 125 nM and incubated for 4 hours at 37° C. with 5% CO2, prior to adjusting the siRNA and FBS concentrations to 100 nM and 10%, respectively, with the addition of 50% FBS/Opti-MEM media. 48 hours post-treatment, the total RNA or protein was harvested for subsequent real-time PCR and Western blot analyses.
Total RNA was harvested using the RNeasy Mini Kit (Qiagen, Germantown, MD). RNA was then reverse transcribed using the High-Capacity cDNA Reverse Transcription Kit (Thermo Fisher Scientific) in a Bio-Rad (Hercules, CA) T100 Thermal Cycler. Next, quantitative real-time PCR was performed in an Applied Biosystems™ StepOnePlus™ Real-Time PCR machine (Thermo Fisher Scientific) using the TaqMan™ Fast Advanced Master Mix (Thermo Fisher Scientific) and predesigned TaqMan™ Gene Expression Assays (Thermo Fisher Scientific) for CIP2A (Hs00405413_m1) and 18S (4319413E), according to the manufacturer's instructions.

CIP2A mRNA [5] = test: Dual peptide siRNA delivery system with GE11R9, CIP2A knockdown; type: cell-based, human; settings: CAL 27 cells

Sequence of RNase A (P61823 27-150): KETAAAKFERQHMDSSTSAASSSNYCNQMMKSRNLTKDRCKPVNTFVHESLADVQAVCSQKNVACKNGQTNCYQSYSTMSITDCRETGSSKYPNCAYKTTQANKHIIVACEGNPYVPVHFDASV

Row | Substance | siRNA delivery into cells (internalization) compared to 599 (CAL 27 cells) | PDI (Polydispersity index) [1] | Particle Size [1] [nm] | Zeta Potential [1] [mV] | ability to protect siRNAs in the presence of RNase A, compared to 599 (RNase A) | ability to protect siRNAs in the presence of serum, compared to 599 (Serum protection assay) | siRNA release compared to 599 (siCIP2A [2]) | complexed siRNAs (maximally) released (siCIP2A [2]; increasing heparin, maximal at 4-fold excess and higher (≥2 μg; ≥120 pmol) of heparin) [%] | binding improvement relative to 599 (siCIP2A [3]) [%] | siRNA delivery into cells compared to 599 (CAL 27 cells; 30:1 Peptide:siRNA molar (7.5 N/P) ratio) | gene silencing in comparison to 599 / among the peptide variants (CIP2A mRNA [4]) | CIP2A knockdown with GE11R9 as compared to scrambled control peptide GE11SCR9 (CIP2A mRNA [5])
1 | GlfeaieGfienGweGmidGwyGGGGrrrrrrrrrk [All-D] | on average lower siRNA uptake abilities in comparison to 599 | 0.366 | 185.9 ± 72.0 | 28.3 ± 7.7 | did not differ from 599 | did not differ from 599 | poor siRNA release | ~70 |  |  |  | 
2 | GlfeaieGfienGweGmidGwyGGGGRRRRRRRRRK [INF7D] | significantly decreased levels of siRNA cell internalization; also recorded: adversely affect the intracellular delivery of siRNAs; also recorded: on average lower siRNA uptake abilities in comparison to 599; also recorded: poorest siRNA cell uptake | 0.296 | 190.4 ± 94.6 | 28.2 ± 10.2 |  | greatest instability in serum | No statistical differences in siRNA release |  | ~20 | dramatic and significant reduction in siRNA delivery into cells | weakest gene silencing effect among the peptide variants | 
3 | YHWYGYTPQNVIGGGGRRRRRRRRRK [GE11R9, EGFR-targeting derivative of GE11 peptide with a stretch of densely packed cationic amino acids] |  |  |  |  |  |  |  |  |  |  |  | shown to be specific
